Test results taken from patent US20260199484A1, “PROTAC DEGRADERS OF MLLT1 AND/OR MLLT3” (DARK BLUE THERAPEUTICS LTD, priority 2024, published 2026).

Molecular target: T1, MLLT1 (Mus musculus, UniProt F6UGX7)
T1 construct: endogenous in cells; host or cells: NIH/3T3 (ATCC CRL-1658)
T1 sequence (F6UGX7 1-547): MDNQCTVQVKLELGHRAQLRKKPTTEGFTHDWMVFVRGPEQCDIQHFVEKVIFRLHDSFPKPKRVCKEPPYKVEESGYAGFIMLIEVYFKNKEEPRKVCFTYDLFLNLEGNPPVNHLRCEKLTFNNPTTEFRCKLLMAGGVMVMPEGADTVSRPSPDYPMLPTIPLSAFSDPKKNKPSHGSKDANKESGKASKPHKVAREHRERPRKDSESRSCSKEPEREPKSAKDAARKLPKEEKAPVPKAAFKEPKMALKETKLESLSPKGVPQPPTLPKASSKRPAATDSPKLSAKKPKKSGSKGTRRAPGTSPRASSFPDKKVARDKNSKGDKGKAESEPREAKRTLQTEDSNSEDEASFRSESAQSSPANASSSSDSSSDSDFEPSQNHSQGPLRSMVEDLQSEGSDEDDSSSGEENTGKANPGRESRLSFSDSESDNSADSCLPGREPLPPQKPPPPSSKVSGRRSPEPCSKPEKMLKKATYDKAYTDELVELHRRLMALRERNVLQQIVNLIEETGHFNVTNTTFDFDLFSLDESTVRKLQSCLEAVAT
Test: MLLT1 degradation assay in NIH/3T3 cells (JESS, 5 h)
Format: cell-based
Description: MLLT1 degradation efficacy of compounds was tested in an automated chemiluminescent detection system (JESS, Cat #004-650). NIH/3T3 (#CRL-1658, ATCC) were seeded at a density of 0.5 million cells/well in a cell culture treated 6-well cell culture plate in 2 mL of complete medium (DMEM+10% FBS+1× Penicillin-Streptomycin) and incubated at 37° C., 5% CO2. The next day, 10 mM DMSO stocks were prepared, and cells were treated with eight concentrations of test compound, starting from 100 nM, 5-fold dilution, at a final DMSO concentration of 0.1% and incubated for 5 h at 37° C., 5% CO2. Post incubation, cells were washed with HBSS and lysed in 70 μL of RIPA buffer supplemented with Protease inhibitors (sc-24948; Santa Cruz). Protein estimation was done using BCA protein assay kit (23228; Pierce). […] Post run, data was analysed using “Compass for SW” software for chemiluminescent detection. […]
MLLT3 degradation efficacy of compounds was tested in an automated chemiluminescent detection system (JESS, Cat #004-650). […] Post run, data was analysed using “Compass for SW” software for chemiluminescent detection. […]

`Cc1nn(CCCCCCCC#Cc2cccc3c2CN(C2CCC(=O)NC2=O)C3=O)c2cc(C(=O)Nc3cc4[nH]c([C@H]5CCCN5C)cc4cn3)ccc12` (mixture of isomers) [Example 1, 1-(9-(2-(2,6-dioxopiperidin-3-yl)-1-oxoisoindolin-4-yl)non-8-yn-1-yl)-3-methyl-N-(2-((R)-1-methylpyrrolidin-2-yl)-1H-pyrrolo[3,2-c]pyridin-6-yl)-1H-indazole-6-carboxamide] gave a Dmax (NIH3T3, read-out: MLLT1 Dmax in NIH/3T3 cells) of 90% and a DC50 (NIH/3T3 cells, 5 h) of 1.4 nM.
